Assay results from patent US5916869A, “Method of treating birds in ovo” (North Carolina State University, priority 1997, dated 1999).

Legend:
[1] = tested on: jejunal glucose transport; settings: cited from earlier work; for glucose absorption: young growing mice, exogenous administration
[2] = in vivo
Method: (§1) To test this hypothesis, the following study was carried out: Four hundred and sixty eggs were randomly divided into two groups and administered either saline (control) or PYY (600 μg/kg egg weight) into the air cell on day 18 of incubation. At hatching 420 chicks were vent sexed, wing-banded, weighed and randomly placed by treatment and sex into 60 pens of 7 chicks each. Pens were equipped with chick founts, nipple drinkers, and feeders. […] The light cycle was 23 light and 1 dark for the entire experiment.
(§2) Chicks were fed a starter diet (22% CP) for the first 3 weeks and a grower diet (20% CP) for the remaining 3 weeks. Individual chicks were weighed weekly and pen feed consumption recorded as feeders were refilled. At week six, all birds were weighed and euthanized with CO2. Data were statistically analyzed using the General Linear Models Procedure of SAS (1988) with treatment, sex, room and pen as the main effects. Differences were considered significant at P<0.05.
(§3) Weight gain and Feed Conversion Ratio (FCR) were evaluated in broiler chicks treated in ovo with PYY as described in Example 1. Although there were sex differences (P<0.05) for many of the growth and performance parameters, there were no sex x treatment interactions (P<0.05). Therefore, data from both sexes was combined.

[3] = Broiler chick Feed Conversion Ratio (FCR) after in ovo administration; type: in vivo, broiler chicks
Method: as §1, §2, §3

[4] = Broiler chick body weight after in ovo administration; type: in vivo, broiler chicks
Method: as §1, §2, §3

Substance	glucose absorption [1]	Mortality [2]	Mortality, difference between treatments [2]	FCR, less than chicks from saline treated eggs ([3]; one week of age, 600 μg/kg egg weight in ovo) [%]	FCR vs saline control (FIG. 2) ([3]; week 1, in ovo injection)	FCR vs control ([3]; weeks 3 and 6, data not shown)	active jejunal glucose transport ([1]; mice treated with PYY)	intestinal energy expenditure ([1]; mice treated with PYY)	passive transport rates ([1]; mice treated with PYY)	body weights vs saline control (FIG. 1) ([4]; hatch and week 1 of age, in ovo injection)	body weight, heavier than chicks from control eggs ([4]; week 1, 600 μg/kg egg weight into air cell on day 18 of incubation, vs saline) [%]	broiler weights vs control ([4]; weeks 3 and 6, data not shown)
epidermal growth factor (NSDSECPLSHDGYCLHDGVCMYIEALDKYACNCVVGYIGERCQYRDLKWWELR; Epidermal growth factor; UniProt P01133 971-1023, looked up) [EGF, epidermal growth factor, peptide administered in ovo as comparison treatment]	increases glucose absorption											
PYY: 36 amino acid peptide hormone produced by L type endocrine cells, member of the pancreatic polypeptide family; term covers PYY-I and PYY-II [Peptide YY]	increases glucose absorption	less than 1%	did not differ significantly between treatments	3.99	significantly lower (P<0.05)	No differences	increase in active jejunal glucose transport	without any increase in intestinal energy expenditure	without a corresponding increase in passive transport rates	significantly (P<0.05) greater	2.7	No statistical differences
